Measurements published in ChEMBL document CHEMBL1275577, “Study of the in vitro activities of rifaximin and comparator agents against 536 anaerobic intestinal bacteria from the perspective of potential utility in pathology involving bowel flora” (Antimicrob Agents Chemother, 2009).

Columns and labels:
[1] = tested on: Peptoniphilus harei; test: Antimicrobial activity against Peptoniphilus harei by Wadsworth agar dilution method; format: functional
[2] = tested on: Clostridium hathewayi; test: Antimicrobial activity against Clostridium hathewayi by Wadsworth agar dilution method; format: functional; conditions: Hungatella hathewayi
[3] = tested on: Prevotella intermedia; test: Antimicrobial activity against Prevotella intermedia by Wadsworth agar dilution method; format: functional
[4] = tested on: Clostridioides difficile; test: Antimicrobial activity against Clostridium difficile by Wadsworth agar dilution method; format: functional
[5] = tested on: [Clostridium] innocuum; test: Antimicrobial activity against Clostridium innocuum by Wadsworth agar dilution method; format: functional
[6] = tested on: Flavonifractor plautii; test: Antimicrobial activity against Clostridium orbiscindens by Wadsworth agar dilution method; format: functional
[7] = tested on: Ruminococcus flavefaciens; test: Antimicrobial activity against Ruminococcus flavefaciens by Wadsworth agar dilution method; format: functional
[8] = tested on: Clostridium septicum; test: Antimicrobial activity against Clostridium septicum by Wadsworth agar dilution method; format: functional
[9] = tested on: Blautia producta; test: Antimicrobial activity against Ruminococcus productus by Wadsworth agar dilution method; format: functional
[10] = tested on: Prevotella disiens; test: Antimicrobial activity against Prevotella disiens by Wadsworth agar dilution method; format: functional
[11] = tested on: Fusobacterium mortiferum; test: Antimicrobial activity against Clostridium rectum by Wadsworth agar dilution method; format: functional
[12] = tested on: Clostridium perfringens; test: Antimicrobial activity against Clostridium perfringens by Wadsworth agar dilution method; format: functional
[13] = tested on: Eubacterium rectale; test: Antimicrobial activity against Eubacterium rectale by Wadsworth agar dilution method; format: functional; conditions: Agathobacter rectalis
[14] = tested on: Eubacterium cylindroides; test: Antimicrobial activity against Eubacterium cylindroides by Wadsworth agar dilution method; format: functional; conditions: Faecalitalea cylindroides
[15] = tested on: Prevotella melaninogenica; test: Antimicrobial activity against Prevotella melaninogenica by Wadsworth agar dilution method; format: functional
[16] = tested on: Clostridium paraputrificum; test: Antimicrobial activity against Clostridium paraputrificum by Wadsworth agar dilution method; format: functional
[17] = tested on: Holdemania filiformis; test: Antimicrobial activity against Holdemania filiformis by Wadsworth agar dilution method; format: functional
[18] = tested on: Fusobacterium mortiferum; test: Antimicrobial activity against Fusobacterium mortiferum by Wadsworth agar dilution method in presence of beta-lactamase inhibitor Sulbactam; format: functional
[19] = tested on: Clostridium bartlettii; test: Antimicrobial activity against Clostridium bartlettii by Wadsworth agar dilution method; format: functional; conditions: Intestinibacter bartlettii
[20] = tested on: Ruminococcus torques; test: Antimicrobial activity against Ruminococcus torques by Wadsworth agar dilution method; format: functional; conditions: Mediterraneibacter torques
[21] = tested on: Eubacterium biforme; test: Antimicrobial activity against Eubacterium biforme by Wadsworth agar dilution method; format: functional; conditions: Holdemanella biformis
[22] = tested on: Ruminococcus obeum; test: Antimicrobial activity against Ruminococcus obeum by Wadsworth agar dilution method; format: functional; conditions: Blautia obeum
[23] = tested on: Clostridium aminobutyricum; test: Antimicrobial activity against Clostridium aminobutyricum by Wadsworth agar dilution method; format: functional
[24] = tested on: Lactobacillus sp.; test: Antimicrobial activity against Lactobacillus sp. by Wadsworth agar dilution method; format: functional
[25] = tested on: Lactiplantibacillus plantarum; test: Antimicrobial activity against Lactobacillus plantarum by Wadsworth agar dilution method; format: functional
[26] = Antimicrobial activity against Bifidobacterium pseudocatenulatum by Wadsworth agar dilution method; format: functional
[27] = tested on: Paraclostridium bifermentans; test: Antimicrobial activity against Clostridium bifermentans by Wadsworth agar dilution method; format: functional
[28] = tested on: Desulfovibrio sp.; test: Antimicrobial activity against Desulfovibrio sp. by Wadsworth agar dilution method; format: functional
[29] = tested on: Propionibacterium propionicum; test: Antimicrobial activity against Propionibacterium propionicum by Wadsworth agar dilution method; format: functional; conditions: Arachnia propionica
[30] = tested on: Clostridium nexile; test: Antimicrobial activity against Clostridium nexile by Wadsworth agar dilution method; format: functional; conditions: Faecalimonas nexilis
[31] = Antimicrobial activity against Bifidobacterium infantis by Wadsworth agar dilution method; format: functional, Bifidobacterium longum subsp. infantis; conditions: Bifidobacterium longum
[32] = tested on: Lacticaseibacillus rhamnosus; test: Antimicrobial activity against Lactobacillus rhamnosus by Wadsworth agar dilution method; format: functional
[33] = tested on: Anaerococcus tetradius; test: Antimicrobial activity against Anaerococcus tetradius by Wadsworth agar dilution method; format: functional
[34] = tested on: Peptostreptococcus anaerobius; test: Antimicrobial activity against Peptostreptococcus anaerobius by Wadsworth agar dilution method; format: functional
[35] = tested on: Cutibacterium acnes; test: Antimicrobial activity against Propionibacterium acnes by Wadsworth agar dilution method; format: functional
[36] = tested on: Porphyromonas somerae; test: Antimicrobial activity against Porphyromonas somerae by Wadsworth agar dilution method; format: functional
[37] = tested on: Parvimonas micra; test: Antimicrobial activity against Peptostreptococcus micros by Wadsworth agar dilution method; format: functional
[38] = tested on: Paeniclostridium sordellii; test: Antimicrobial activity against Clostridium sordellii by Wadsworth agar dilution method; format: functional; conditions: Paraclostridium sordellii
[39] = tested on: Clostridium glycolicum; test: Antimicrobial activity against Clostridium glycolicum by Wadsworth agar dilution method; format: functional; conditions: Terrisporobacter glycolicus
[40] = tested on: Parabacteroides merdae; test: Antimicrobial activity against Parabacteroides merdae by Wadsworth agar dilution method; format: functional
[41] = tested on: Thomasclavelia ramosa; test: Antimicrobial activity against Clostridium ramosum by Wadsworth agar dilution method; format: functional
[42] = tested on: Collinsella aerofaciens; test: Antimicrobial activity against Colinsella aerofaciens by Wadsworth agar dilution method; format: functional
[43] = tested on: Limosilactobacillus reuteri; test: Antimicrobial activity against Lactobacillus reuteri by Wadsworth agar dilution method; format: functional
[44] = tested on: Prevotella bivia; test: Antimicrobial activity against Prevotella bivia by Wadsworth agar dilution method; format: functional
[45] = tested on: Bacteroides caccae; test: Antimicrobial activity against Bacteroides caccae by Wadsworth agar dilution method; format: functional
[46] = tested on: Bifidobacterium longum; test: Antimicrobial activity against Bifidobacterium longum by Wadsworth agar dilution method; format: functional
[47] = tested on: Lactobacillus jensenii; test: Antimicrobial activity against Lactobacillus jensenii by Wadsworth agar dilution method; format: functional

CC(=O)Oc1ccccc1C(=O)Nc1ncc([N+](=O)[O-])s1 [NITAZOXANIDE]
2 µg/mL: MIC50 [12] | MIC50 [13] | MIC50 [14] | MIC50 [17] | MIC50 [21] | MIC50 [24] | MIC50 [25] | MIC50 [26] | MIC50 [29] | MIC50 [31] | MIC50 [32] | MIC50 [35] | MIC50 [42] | MIC50 [43] | MIC50 [45] | MIC50 [46] | MIC50 [47]
4 µg/mL: MIC50 [3] | MIC90 [5] | MIC90 [8] | MIC50 [10] | MIC90 [11] | MIC90 [12] | MIC50 [15] | MIC90 [16] | MIC90 [19] | MIC90 [23] | MIC90 [27] | MIC90 [28] | MIC90 [30] | MIC90 [38] | MIC90 [39] | MIC50 [40] | MIC90 [40] | MIC90 [41] | MIC50 [44] | MIC90 [45]
0.25 µg/mL: MIC [4] | MIC50 [4] | MIC [6] | MIC50 [6]
8 µg/mL: MIC90 [3] | MIC90 [10] | MIC90 [15] | MIC90 [18] | MIC90 [44]
1 µg/mL: MIC90 [1] | MIC50 [5] | MIC90 [7] | MIC90 [9] | MIC50 [18] | MIC90 [20] | MIC90 [22] | MIC50 [28] | MIC90 [33] | MIC90 [34] | MIC90 [36] | MIC90 [37]
32 µg/mL: MIC90 [13] | MIC90 [14] | MIC90 [17] | MIC90 [21] | MIC90 [24] | MIC90 [25] | MIC90 [26] | MIC90 [29] | MIC90 [31] | MIC90 [32] | MIC90 [35] | MIC90 [42] | MIC90 [43] | MIC90 [46] | MIC90 [47]
0.5 µg/mL: MIC50 [1] | MIC50 [2] | MIC90 [2] | MIC90 [4] | MIC90 [6] | MIC50 [7] | MIC50 [8] | MIC50 [9] | MIC50 [11] | MIC50 [16] | MIC50 [19] | MIC50 [20] | MIC50 [22] | MIC50 [23] | MIC50 [27] | MIC50 [30] | MIC50 [33] | MIC50 [34] | MIC50 [36] | MIC50 [37] | MIC50 [38] | MIC50 [39] | MIC50 [41]
